Targets include Motilin receptor (Homo sapiens, UniProt O43193); Adenosine receptor A2a (Homo sapiens, UniProt P29274); Melanocortin receptor 3 (Homo sapiens, UniProt P41968).
In assay [1] the target is T1, 5-hydroxytryptamine receptor 1A (Homo sapiens, UniProt P08908).
T1 sequence (P08908 whole entry): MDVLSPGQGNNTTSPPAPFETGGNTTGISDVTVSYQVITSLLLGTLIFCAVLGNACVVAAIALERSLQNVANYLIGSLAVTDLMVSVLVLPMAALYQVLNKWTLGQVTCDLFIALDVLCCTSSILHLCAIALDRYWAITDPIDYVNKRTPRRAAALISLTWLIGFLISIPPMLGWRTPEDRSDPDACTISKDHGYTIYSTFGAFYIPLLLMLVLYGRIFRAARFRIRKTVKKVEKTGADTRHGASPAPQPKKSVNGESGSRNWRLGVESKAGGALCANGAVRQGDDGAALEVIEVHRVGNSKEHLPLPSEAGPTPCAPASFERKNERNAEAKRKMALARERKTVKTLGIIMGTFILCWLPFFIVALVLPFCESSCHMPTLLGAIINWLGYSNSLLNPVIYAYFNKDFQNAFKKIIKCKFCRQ
The assay is classed as functional, cell-based.

For assay [2], the target named is T2, Alpha-2A adrenergic receptor (Homo sapiens, UniProt P08913).
T2 sequence (P08913 whole entry): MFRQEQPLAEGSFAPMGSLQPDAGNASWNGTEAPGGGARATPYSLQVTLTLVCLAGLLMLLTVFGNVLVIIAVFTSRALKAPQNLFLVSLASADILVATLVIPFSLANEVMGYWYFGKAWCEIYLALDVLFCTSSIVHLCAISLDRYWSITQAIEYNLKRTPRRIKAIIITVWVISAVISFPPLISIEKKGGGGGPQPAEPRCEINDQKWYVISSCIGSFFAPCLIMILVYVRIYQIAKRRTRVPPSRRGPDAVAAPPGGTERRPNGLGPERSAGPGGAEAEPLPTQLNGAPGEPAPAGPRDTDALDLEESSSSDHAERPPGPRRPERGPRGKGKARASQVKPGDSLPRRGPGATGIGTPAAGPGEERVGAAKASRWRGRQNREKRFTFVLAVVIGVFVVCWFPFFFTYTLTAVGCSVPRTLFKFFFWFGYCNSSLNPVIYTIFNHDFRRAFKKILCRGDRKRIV
The assay is classed as functional, cell-based.

The target of assay [3] is 5-hydroxytryptamine receptor 2A (Homo sapiens, UniProt P28223). The assay is classed as functional, cell-based.
5-hydroxytryptamine receptor 2A, sequence (P28223 whole entry): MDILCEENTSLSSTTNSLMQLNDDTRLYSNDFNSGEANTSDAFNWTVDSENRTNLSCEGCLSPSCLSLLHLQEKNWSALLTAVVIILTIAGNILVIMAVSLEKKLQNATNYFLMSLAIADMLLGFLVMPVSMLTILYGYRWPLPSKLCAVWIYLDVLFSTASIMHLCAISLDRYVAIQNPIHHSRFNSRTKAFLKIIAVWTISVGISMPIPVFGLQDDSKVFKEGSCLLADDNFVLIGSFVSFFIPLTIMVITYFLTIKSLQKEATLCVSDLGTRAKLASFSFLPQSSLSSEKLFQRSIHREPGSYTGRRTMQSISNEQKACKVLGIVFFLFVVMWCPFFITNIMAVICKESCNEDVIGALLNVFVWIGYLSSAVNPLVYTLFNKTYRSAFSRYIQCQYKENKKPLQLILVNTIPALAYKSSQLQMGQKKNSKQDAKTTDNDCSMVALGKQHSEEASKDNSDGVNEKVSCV
The target in assay [4] is T1, 5-hydroxytryptamine receptor 1A. Type of assay: functional, cell-based. The source holds these as a separate data set.
Assay [5] has as its target T3, Muscarinic acetylcholine receptor M2 (Homo sapiens, UniProt P08172).
T3 sequence (P08172 whole entry): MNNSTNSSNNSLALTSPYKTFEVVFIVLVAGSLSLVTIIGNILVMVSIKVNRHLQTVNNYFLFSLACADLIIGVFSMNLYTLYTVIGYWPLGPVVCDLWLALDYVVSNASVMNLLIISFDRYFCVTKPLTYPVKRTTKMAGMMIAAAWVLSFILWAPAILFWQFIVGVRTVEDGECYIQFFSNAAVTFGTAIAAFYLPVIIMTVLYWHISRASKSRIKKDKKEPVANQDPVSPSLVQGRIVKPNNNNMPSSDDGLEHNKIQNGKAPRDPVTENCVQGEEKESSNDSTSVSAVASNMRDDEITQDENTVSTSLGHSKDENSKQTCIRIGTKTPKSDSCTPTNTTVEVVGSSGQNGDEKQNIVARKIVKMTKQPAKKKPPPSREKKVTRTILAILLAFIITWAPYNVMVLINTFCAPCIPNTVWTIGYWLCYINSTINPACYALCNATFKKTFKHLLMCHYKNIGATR
The assay is classed as functional, cell-based.

In another assay the target is T4, Adenosine receptor A1 (Homo sapiens, UniProt P30542).
T4 sequence (P30542 whole entry): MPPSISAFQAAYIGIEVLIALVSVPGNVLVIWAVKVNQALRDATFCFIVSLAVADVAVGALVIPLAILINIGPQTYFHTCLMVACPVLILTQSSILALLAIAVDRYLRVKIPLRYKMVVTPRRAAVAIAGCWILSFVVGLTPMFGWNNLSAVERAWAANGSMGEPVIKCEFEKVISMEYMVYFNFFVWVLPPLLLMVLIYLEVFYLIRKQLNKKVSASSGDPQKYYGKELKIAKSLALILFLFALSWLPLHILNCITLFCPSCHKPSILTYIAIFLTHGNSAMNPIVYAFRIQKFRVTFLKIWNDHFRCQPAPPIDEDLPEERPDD

Assay [6] addresses T5, Alpha-2C adrenergic receptor (Homo sapiens, UniProt P18825).
T5 sequence (P18825 whole entry): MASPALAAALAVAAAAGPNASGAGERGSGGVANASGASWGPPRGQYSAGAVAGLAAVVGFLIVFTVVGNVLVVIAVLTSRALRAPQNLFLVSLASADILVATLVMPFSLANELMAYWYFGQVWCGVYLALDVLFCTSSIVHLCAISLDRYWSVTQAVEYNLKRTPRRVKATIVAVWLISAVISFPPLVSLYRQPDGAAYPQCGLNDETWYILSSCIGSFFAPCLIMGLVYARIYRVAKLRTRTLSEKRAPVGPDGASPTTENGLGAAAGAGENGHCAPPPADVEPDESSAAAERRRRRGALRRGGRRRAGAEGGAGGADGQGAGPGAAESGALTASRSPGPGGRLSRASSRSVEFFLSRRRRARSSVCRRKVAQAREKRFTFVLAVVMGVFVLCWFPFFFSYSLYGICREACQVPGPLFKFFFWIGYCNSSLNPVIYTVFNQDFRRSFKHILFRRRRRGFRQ
The assay is classed as functional.

The next assay addresses Histamine H2 receptor (Homo sapiens, UniProt P25021). The assay is classed as functional, cell-based.
The target of assay [7] is Voltage-gated inwardly rectifying potassium channel KCNH2 (Homo sapiens, UniProt Q12809). Type of assay: functional.
Voltage-gated inwardly rectifying potassium channel KCNH2, sequence (Q12809 whole entry): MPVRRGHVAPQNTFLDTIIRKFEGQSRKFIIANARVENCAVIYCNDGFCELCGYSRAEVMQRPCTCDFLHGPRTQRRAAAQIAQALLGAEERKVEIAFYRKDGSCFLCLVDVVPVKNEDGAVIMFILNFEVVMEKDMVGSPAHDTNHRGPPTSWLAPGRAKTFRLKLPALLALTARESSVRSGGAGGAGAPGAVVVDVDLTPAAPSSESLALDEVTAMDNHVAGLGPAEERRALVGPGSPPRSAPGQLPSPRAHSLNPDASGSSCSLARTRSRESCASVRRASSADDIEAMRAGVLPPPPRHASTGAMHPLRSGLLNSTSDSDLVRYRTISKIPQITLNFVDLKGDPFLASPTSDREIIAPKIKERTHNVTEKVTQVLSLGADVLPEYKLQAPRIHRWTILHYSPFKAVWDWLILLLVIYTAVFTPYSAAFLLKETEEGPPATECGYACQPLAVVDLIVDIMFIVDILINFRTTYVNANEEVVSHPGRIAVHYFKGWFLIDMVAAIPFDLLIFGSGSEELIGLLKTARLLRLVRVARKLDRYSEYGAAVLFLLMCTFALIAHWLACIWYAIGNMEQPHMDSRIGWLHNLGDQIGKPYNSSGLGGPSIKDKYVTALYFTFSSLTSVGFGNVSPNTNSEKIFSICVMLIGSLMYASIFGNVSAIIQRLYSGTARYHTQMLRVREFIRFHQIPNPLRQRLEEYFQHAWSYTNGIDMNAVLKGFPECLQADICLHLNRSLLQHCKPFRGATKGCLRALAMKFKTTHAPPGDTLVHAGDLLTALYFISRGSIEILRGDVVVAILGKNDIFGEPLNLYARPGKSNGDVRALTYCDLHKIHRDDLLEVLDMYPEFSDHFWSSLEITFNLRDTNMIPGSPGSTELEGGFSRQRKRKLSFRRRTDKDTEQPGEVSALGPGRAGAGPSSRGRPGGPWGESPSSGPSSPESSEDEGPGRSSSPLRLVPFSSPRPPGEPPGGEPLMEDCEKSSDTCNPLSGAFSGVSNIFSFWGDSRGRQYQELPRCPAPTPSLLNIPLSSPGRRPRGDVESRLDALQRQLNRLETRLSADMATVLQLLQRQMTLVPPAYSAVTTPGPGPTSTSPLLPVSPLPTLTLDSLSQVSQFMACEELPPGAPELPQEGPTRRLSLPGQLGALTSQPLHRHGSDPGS
Also: assay procedure not described here.

Histamine H2 receptor, sequence (P25021 whole entry): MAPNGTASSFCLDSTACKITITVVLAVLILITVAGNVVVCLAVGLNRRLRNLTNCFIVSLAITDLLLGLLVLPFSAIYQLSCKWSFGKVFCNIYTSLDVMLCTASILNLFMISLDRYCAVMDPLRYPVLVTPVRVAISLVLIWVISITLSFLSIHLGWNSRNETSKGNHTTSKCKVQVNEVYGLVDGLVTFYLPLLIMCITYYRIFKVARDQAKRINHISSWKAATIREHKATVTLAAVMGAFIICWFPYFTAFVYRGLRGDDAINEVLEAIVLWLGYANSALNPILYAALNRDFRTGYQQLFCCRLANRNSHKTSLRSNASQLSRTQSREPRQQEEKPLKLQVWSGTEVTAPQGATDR
Melanocortin receptor 3, sequence (P41968 whole entry): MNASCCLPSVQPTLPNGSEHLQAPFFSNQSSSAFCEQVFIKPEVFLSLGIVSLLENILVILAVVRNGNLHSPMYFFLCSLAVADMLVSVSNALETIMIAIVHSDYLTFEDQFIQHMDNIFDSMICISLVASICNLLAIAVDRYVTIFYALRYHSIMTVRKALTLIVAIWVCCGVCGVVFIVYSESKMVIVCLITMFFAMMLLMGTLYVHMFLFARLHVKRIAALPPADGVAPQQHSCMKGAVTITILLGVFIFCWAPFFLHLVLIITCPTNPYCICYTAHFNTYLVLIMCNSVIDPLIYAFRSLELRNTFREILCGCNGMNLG
Adenosine receptor A2a, sequence (P29274 whole entry): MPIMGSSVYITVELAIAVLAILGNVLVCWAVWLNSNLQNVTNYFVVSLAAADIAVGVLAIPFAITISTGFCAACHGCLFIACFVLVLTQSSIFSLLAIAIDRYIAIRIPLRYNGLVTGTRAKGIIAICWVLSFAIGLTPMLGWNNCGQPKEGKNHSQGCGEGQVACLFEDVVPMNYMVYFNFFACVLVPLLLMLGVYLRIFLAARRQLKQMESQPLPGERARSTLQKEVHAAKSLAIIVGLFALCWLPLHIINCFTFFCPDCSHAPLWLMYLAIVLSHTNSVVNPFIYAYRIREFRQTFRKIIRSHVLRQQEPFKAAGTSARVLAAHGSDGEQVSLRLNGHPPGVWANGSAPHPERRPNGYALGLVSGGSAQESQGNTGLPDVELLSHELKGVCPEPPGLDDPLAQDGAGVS
Motilin receptor, sequence (O43193 whole entry): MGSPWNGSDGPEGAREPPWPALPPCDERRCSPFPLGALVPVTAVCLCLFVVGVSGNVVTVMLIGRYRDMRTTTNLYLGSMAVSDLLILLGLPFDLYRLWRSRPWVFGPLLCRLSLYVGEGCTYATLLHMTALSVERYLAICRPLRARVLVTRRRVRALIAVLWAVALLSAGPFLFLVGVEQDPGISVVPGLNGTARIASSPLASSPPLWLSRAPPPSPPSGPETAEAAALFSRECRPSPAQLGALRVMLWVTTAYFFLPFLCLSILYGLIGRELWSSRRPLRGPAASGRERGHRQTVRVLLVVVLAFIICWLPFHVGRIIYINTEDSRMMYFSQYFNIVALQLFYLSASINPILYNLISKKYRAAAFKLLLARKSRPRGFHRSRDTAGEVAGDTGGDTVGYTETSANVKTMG

For the compound `COCC1=C(C(=O)O)N2C(=O)[C@@H](NC(=O)/C(=N\OC)c3csc(N)n3)[C@H]2SC1` [CEFPODOXIME], the AC50 (in assay [1]; on Motilin receptor; at Adenosine receptor A2a; in [2]; in assay [3]; in [4]) was above 30 µM throughout. Besides, the AC50 (in assay [5]; on Adenosine receptor A1; in assay [6]; at Histamine H2 receptor; on Melanocortin receptor 3; in [7]) was above 30 µM each time.
Turning to `Cc1cccc(N2CC(CO)OC2=O)c1` (stereo not given) [TOLOXATONE], the AC50 (in assay [1]; at Motilin receptor; on Adenosine receptor A2a; in [2]; in [3]; in [5]) was above 30 µM in each case. Moreover, the AC50 (on Adenosine receptor A1; in [6]; at Histamine H2 receptor; on Melanocortin receptor 3; in [7]) was above 30 µM throughout.
Consider `C#C[C@]1(OC(C)=O)CC[C@H]2[C@@H]3CCC4=C/C(=N/O)CC[C@@H]4[C@H]3CC[C@@]21CC` [NORGESTIMATE], for which the half-maximal activity concentration (AC50) (in assay [1]; at Motilin receptor; at Adenosine receptor A2a; in [2]; in assay [3]; in [4]) was above 30 µM each time. Besides, the AC50 (in assay [5]; at Adenosine receptor A1; in assay [6]; at Histamine H2 receptor; at Melanocortin receptor 3; in assay [7]) was above 30 µM each time.
Regarding `Oc1ccc2c(c1)CC[C@H](c1ccccc1)[C@@H]2c1ccc(OCCN2CCCC2)cc1` [LASOFOXIFENE], the AC50 (in general, the concentration giving half of the maximal activity seen) in assay [1] was above 30 µM; on Motilin receptor, 2.9 µM; at Adenosine receptor A2a, above 30 µM; in assay [2] it was 10 µM; in assay [3], 12 µM; in assay [4], above 30 µM. For the same compound, the AC50 in assay [5] is 15 µM; on Adenosine receptor A1 it was above 30 µM; on Histamine H2 receptor, above 30 µM; on Melanocortin receptor 3 it was 11 µM; in assay [7], 0.73 µM.
As for `COc1cc(N)c(Cl)cc1C(=O)NC1CCN(Cc2ccccc2)CC1` [CLEBOPRIDE], the AC50 (in assay [1]; on Motilin receptor; on Adenosine receptor A2a; in assay [2]; in assay [3]; in assay [5]) was above 30 µM in each case. In addition, the AC50 at Adenosine receptor A1 was above 30 µM; in [6], 2.1 µM; on Histamine H2 receptor it was above 30 µM; at Melanocortin receptor 3, above 30 µM; in [7], 1.4 µM.
For `C[C@]12CC[C@@H]3c4ccc(O)cc4C[C@@H](CCCCCCCCC[S+]([O-])CCCC(F)(F)C(F)(F)F)[C@H]3[C@@H]1CC[C@@H]2O` (stereo not given in full) [FULVESTRANT], the AC50 (in assay [1]; on Motilin receptor; on Adenosine receptor A2a; in [2]; in assay [3]; in assay [5]) was above 30 µM each time. The AC50 (at Adenosine receptor A1; in [6]; at Histamine H2 receptor; on Melanocortin receptor 3; in assay [7]) was above 30 µM throughout.
Consider `CC1(C)S[C@@H]2[C@H](NC(=O)[C@H](N)c3ccccc3)C(=O)N2[C@H]1C(=O)OCOC(=O)[C@@H]1N2C(=O)C[C@H]2S(=O)(=O)C1(C)C` [SULTAMICILLIN], for which the AC50 (in assay [1]; at Motilin receptor; at Adenosine receptor A2a; in [2]; in assay [3]; in assay [5]) was above 30 µM throughout. The AC50 (on Adenosine receptor A1; in [6]; on Histamine H2 receptor; on Melanocortin receptor 3; in assay [7]) was above 30 µM throughout.
In the case of `C[C@]12CCC(=O)C(O)=C1CC[C@@H]1[C@@H]2CC[C@]2(C)C(=O)CC[C@@H]12` [FORMESTANE], the AC50 (in assay [1]; on Motilin receptor; on Adenosine receptor A2a; in assay [2]; in [3]; in assay [4]) was above 30 µM in each case. The AC50 (in [5]; at Adenosine receptor A1; in assay [6]; at Histamine H2 receptor; at Melanocortin receptor 3; in assay [7]) was above 30 µM throughout.
In the case of `CC(=O)N[C@@H](CS)C(=O)O` [ACETYLCYSTEINE], the AC50 (in assay [1]; at Motilin receptor; on Adenosine receptor A2a; in assay [2]; in assay [3]; in [4]) was above 30 µM in each case. Further, the AC50 (in [5]; at Adenosine receptor A1; in [6]; on Histamine H2 receptor; on Melanocortin receptor 3; in assay [7]) was above 30 µM throughout.
`CCC(C)C1(CC)C(=O)NC(=O)NC1=O` (stereo not given) [BUTABARBITAL]: the AC50 (in assay [1]; on Motilin receptor; at Adenosine receptor A2a; in assay [2]; in assay [3]; in assay [5]) was above 30 µM in each case. Further, the AC50 (on Adenosine receptor A1; in assay [6]; on Histamine H2 receptor; at Melanocortin receptor 3; in assay [7]) was above 30 µM throughout.
In the case of `CCC(C)C(CC)C(N)=O` (stereo not given) [VALNOCTAMIDE], the AC50 (in assay [1]; at Motilin receptor; on Adenosine receptor A2a; in assay [2]; in assay [3]; in [5]) was above 30 µM throughout. Also, the AC50 (at Adenosine receptor A1; in [6]; on Histamine H2 receptor; at Melanocortin receptor 3; in assay [7]) was above 30 µM each time.

Source of the values: ChEMBL document CHEMBL5291721, “A preclinical secondary pharmacology resource illuminates target-adverse drug reaction associations of marketed drugs” (Nat Commun, 2023).
